The values below are quoted from earlier work in patent publication US20140037729A1, “COMBINATION OF AN OPIOID AGONIST AND AN OPIOID ANTAGONIST IN THE TREATMENT OF PARKINSON'S DISEASE” (Euro-Celtique, S.A., priority 2010, published 2014).

The conditions of data set [1]: reported.
The next data set relates to parkinsonian patients. The conditions noted are these: at higher doses; Berg et al. 1999.
For a further data set, the system named is parkinsonian monkeys. The conditions noted are these: in the long term; Samadi et al. 2005.

With `C=CCN1CC[C@]23c4c5ccc(O)c4O[C@H]2C(=O)CC[C@@]3(O)[C@H]1C5` [Naloxone, naloxone], the oral bioavailability in data set [1] is at most 2%.
With `CN1CC[C@]23c4c5ccc(O)c4O[C@H]2[C@@H](O)C=C[C@H]3[C@H]1C5` [morphine], in the data set on parkinsonian patients, the akinesia entry is on record as “increase in akinesia”.
As to `O=C1CC[C@@]2(O)[C@H]3Cc4ccc(O)c5c4[C@@]2(CCN3CC2CC2)[C@H]1O5` [naltrexone], the dyskinesias result in the data set with parkinsonian monkeys is on record as “increases dyskinesias”.
